Format in all cases: biochemical
In assay [1] the target is Pim-3 (Homo sapiens (Human), UniProt Q86V86). Put plainly: Pim-3 kinase assay. The note with it: 1 mM ATP, biotin-labeled BAD peptide substrate; read-out: Pim3 IC50. Summed up: (§1)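 Biotin-BAD peptide ([…]) phosphorylated with 1 mM ATP by 2.5 pM Pim-1 or 1.25 pM Pim-3, 1 h at 25 °C in Tris pH 7.5, MgCl2, DTT buffer. EDTA stop with anti-phospho-BAD (Ser112) antibody and AlphaScreen streptavidin donor/Protein-A acceptor beads; signal read after 1 h dark incubation.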

Assay [2] has as its target Pim-1 (Homo sapiens (Human), UniProt P11309). Kind of assay: Pim-1 kinase assay. The note with it: 1 mM ATP, biotin-labeled BAD peptide substrate; read-out: Pim1 IC50. The procedure, abridged:
as §1

For assay [3], the target named is Pim-2 (Homo sapiens (Human), UniProt Q9P1W9). Put plainly: Pim-2 kinase assay. The note with it: 1 mM ATP, fluorescein-labeled CREBtide peptide substrate; read-out: Pim2 IC50. Summed up:
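Phosphorylated CREBtide was detected by terbium anti-pSer133 antibody TR-FRET after EDTA quench and 30 min at room temperature. Reactions ran 2 h at 25 °C with 1 mM ATP, 0.05 μM fluorescein-labelled substrate and 1 nM enzyme in pH 7.5 Tris buffer.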

Some results are limits rather than exact numbers.

Chain of Pim-1 (P11309 whole entry): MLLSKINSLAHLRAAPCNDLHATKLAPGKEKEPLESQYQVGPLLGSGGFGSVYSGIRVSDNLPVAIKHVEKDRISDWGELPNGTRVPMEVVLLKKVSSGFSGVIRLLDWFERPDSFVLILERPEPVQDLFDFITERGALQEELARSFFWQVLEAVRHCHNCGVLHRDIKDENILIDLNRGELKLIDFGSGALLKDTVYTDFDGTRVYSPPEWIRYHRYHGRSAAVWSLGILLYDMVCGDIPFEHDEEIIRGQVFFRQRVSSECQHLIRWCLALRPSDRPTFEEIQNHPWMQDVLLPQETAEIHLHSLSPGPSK
Chain of Pim-2 (Q9P1W9 whole entry): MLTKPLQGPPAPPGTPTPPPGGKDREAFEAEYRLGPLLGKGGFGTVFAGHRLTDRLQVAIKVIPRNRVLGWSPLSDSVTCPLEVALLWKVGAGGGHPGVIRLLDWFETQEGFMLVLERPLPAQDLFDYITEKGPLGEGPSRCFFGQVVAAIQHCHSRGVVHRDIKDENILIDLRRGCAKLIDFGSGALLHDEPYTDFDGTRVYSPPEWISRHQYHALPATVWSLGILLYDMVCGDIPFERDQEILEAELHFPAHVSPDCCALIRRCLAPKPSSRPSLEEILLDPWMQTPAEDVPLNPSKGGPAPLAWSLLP

The IC50 is the point on the concentration scale where inhibition reaches its midpoint. `CC(=O)Nc1cnc2c(C(=O)Nc3cnccc3N3C[C@@H](N)[C@H](O)[C@@H](C)C3)c(N)sc2c1` [Example 141, 6-(Acetylamino)-2-amino-N-{4-[(3R,4R,5S)-3-amino-4-hydroxy-5-methylpiperidin-1-yl]pyridin-3-yl}thieno[3,2-b]pyridine-3-carboxamide]: the IC50 was no more than 10 nM in assay [1], no more than 10 nM in assay [2] and 10 to 100 nM in assay [3].

For `Nc1oc2cc(CN3CC(F)(F)C3)cnc2c1C(=O)Nc1cnccc1N1C[C@@H](N)C[C@@H](C(F)(F)F)C1` [Example 100, 2-Amino-N-{4-[(3S,5R)-3-amino-5-(trifluoromethyl)piperidin-1-yl]pyridin-3-yl}-6-[(3,3-difluoroazetidin-1-yl)methyl]furo[3,2-b]pyridine-3-carboxamide], the concentration for half-maximal inhibition (IC50) was no more than 10 nM in assay [1], no more than 10 nM in assay [2] and 10 to 100 nM in assay [3].

Consider `Cc1cnc2c(C(=O)Nc3cnccc3N3C[C@@H](N)C[C@@H](C(F)(F)F)C3)c(N)oc2c1` [Example 115, 2-Amino-N-{4-[(3S,5R)-3-amino-5-(trifluoromethyl)piperidin-1-yl]pyridin-3-yl}-6-methylfuro[3,2-b]pyridine-3-carboxamide], for which the IC50 in assay [1], in assay [2] and in assay [3] was no more than 10 nM throughout.

Consider `C[C@@H]1C[C@H](N)CN(c2sncc2NC(=O)c2c(N)oc3cc(C4CCOCC4)cnc23)C1` [Example 96], for which the IC50 was no more than 10 nM in assay [1], no more than 10 nM in assay [2] and 10 to 100 nM in assay [3].

On to `Nc1oc2cc(C3CCC3)cnc2c1C(=O)Nc1cnccc1N1C[C@@H](N)C[C@@H](C(F)(F)F)C1` [Example 98, 2-Amino-N-{4-[(3S,5R)-3-amino-5-(trifluoromethyl)piperidin-1-yl]pyridin-3-yl}-6-cyclobutylfuro[3,2-b]pyridine-3-carboxamide], for which the IC50 in assay [1], in assay [2] and in assay [3] was no more than 10 nM throughout.

On to `COC1CCN(Cc2cnc3c(C(=O)Nc4cnccc4N4C[C@@H](N)C[C@@H](C(F)(F)F)C4)c(N)oc3c2)CC1` [Example 107, 2-Amino-N-{4-[(3S,5R)-3-amino-5-(trifluoromethyl)piperidin-1-yl]pyridin-3-yl}-6-[(4-methoxypiperidin-1-yl)methyl]furo[3,2-b]pyridine-3-carboxamide], for which the results for the IC50 in assay [1], in assay [2] and in assay [3] were no more than 10 nM, no more than 10 nM and 10 to 100 nM, respectively.

With `Nc1oc2cc(CCCN3CCOCC3)cnc2c1C(=O)Nc1cnccc1N1C[C@@H](N)C[C@@H](C(F)(F)F)C1` [Example 132, 2-Amino-N-{4-[(3S,5R)-3-amino-5-(trifluoromethyl)piperidin-1-yl]pyridin-3-yl}-6-(3-morpholin-4-ylpropyl)furo[3,2-b]pyridine-3-carboxamide], the IC50 in assay [1], in assay [2] and in assay [3] was no more than 10 nM in each case.

Turning to `CC(C)Oc1cnc2c(C(=O)Nc3cnccc3N3C[C@H](C)C[C@H](N)C3)c(N)oc2c1` [Example 121, 2-Amino-N-(4-((3S,5R)-3-amino-5-methylpiperidin-1-yl)pyridin-3-yl)-6-isopropoxyfuro[3,2-b]pyridine-3-carboxamide], the IC50 in assay [1] was no more than 10 nM; in assay [2], no more than 10 nM; in assay [3], 10 to 100 nM.

On to `Nc1oc2cc(CN3CC[C@@H](F)C3)cnc2c1C(=O)Nc1cnccc1N1C[C@@H](N)C[C@@H](C(F)(F)F)C1` [Example 105, 2-Amino-N-{4-[(3S,5R)-3-amino-5-(trifluoromethyl)piperidin-1-yl]pyridin-3-yl}-6-{[(3R)-3-fluoropyrrolidin-1-yl]methyl}furo[3,2-b]pyridine-3-carboxamide], for which the IC50 in assay [1] is no more than 10 nM; in assay [2], no more than 10 nM; in assay [3], 10 to 100 nM.
